Where two headings read alike, the source gives them in different places.
Assay: Plasma pharmacokinetics of Compound 2 in PD participants (LC-MS/MS)
Type: in vivo, human
Procedure: Participants were randomised to 3 doses of once-daily orally administered Compound 2 or placebo, in sequential cohort design, and were followed up to 36 weeks (52 weeks for Japanese participants). Participants in the low-dose group received 4 mg of Compound 2 as a once daily oral dose; participants in the mid-dose group received 8 mg of Compound 2 a once daily oral dose; and participants in the high-dose group received 15 mg of Compound 2 a once daily oral dose.
Analyses were based on all available data from participants who enrolled in part 1 of the trial and were randomised to receive either Compound 2 or placebo for up to 52 weeks for Japanese participants and 36 weeks for the ROW population. As part 1 was an exploratory, dose-escalation study, the sample size was not based on a statistical power calculation. Participants included in the primary safety analyses were those who were randomized and received at least one dose of Compound 2 or placebo. A data monitoring committee was responsible for overseeing the safety of patients and the risk/benefit ratio throughout the study. Duration of exposure to Compound 2 was different among the doses, as per the sequential cohort design, with the low- and high-dose cohorts commencing the study first and last, respectively. For pharmacokinetics, plasma parameters were calculated using noncompartmental methods, from plasma Compound 2 concentrations obtained after single dose administration. AUC0-24 and AUC0-48 were calculated using the trapezoidal method over a predefined time period of 24 hours or 48 hours, respectively. CLss/F was calculated using the following equation: CLss/F=Dose/AUCτ, where τ is the dosing interval. For pharmacodynamics, percent reduction of plasma or CSF GL-1 from baseline was calculated as (value−baseline)/baseline×100. Formal statistical testing was not conducted on MDS-UPDRS scale assessments.
The secondary outcome was to evaluate the pharmacokinetic profile of Compound 2 in plasma and cerebrospinal fluid (CSF) over a 4-week period. Plasma pharmacokinetic parameters included maximum plasma concentration (Cmax), time to Cmax (tmax), and area under the plasma concentration versus time curve from 0 to 24 h (AUC0-24). All parameters were assessed at Week 0 and Week 4 after treatment. In addition, AUC0-48 was assessed at Week 0, trough plasma concentration observed just before treatment administration during repeated dosing (Ctrough) was assessed at Weeks 2, 4, and 8 (FIG. 3), and total systemic clearance from plasma at steady state (CLSS/F) was assessed at Week 4. Plasma samples were collected at 1 hour pre-dose and 1, 2, 4, 8, 24, and 48 hours postdose. Compound 2 concentration in plasma was determined using a liquid chromatography tandem mass spectrometry method with a lower limit of quantification of 0.500 ng/mL. CSF samples were collected by lumbar puncture during the screening period (within 14 days prior to randomisation) or on the day of randomisation, and at Week 4, within 2 to 4 hours postdose. Compound 2 concentration in CSF was determined using a liquid chromatography tandem mass spectrometry method with a lower limit of quantification of 0.100 ng/mL.

Question: Which “increase of Compound 2 concentration in plasma with dose” value (Japanese and ROW cohorts, 4, 8, 15 mg) does the source give for `CC(C)(NC(=O)O[C@@H]1CN2CCC1CC2)c1csc(-c2ccc(F)cc2)n1` [Compound 2, (S)-quinuclidin-3-yl (2-(2-(4-fluorophenyl)thiazol-4-yl)propan-2-yl)carbamate] here?
Answer: close to dose-proportional manner

Question: And the Tmax (human, plasma, oral, plasma, Week 4, Japanese participants, across all doses tested, read-out: median tmax values)?
Answer: 2.1 to 4.33 h

Question: What about the Tmax (human, plasma, oral, plasma, Week 4, ROW participants, across all doses tested, read-out: median tmax values) of the same molecule?
Answer: 1.96 to 3.55 h

Question: What about the Cmax at 4 weeks (human, plasma, po, 4 mg, Week 4, Japan, Low 4 mg once daily oral, n = 3) of the same molecule?
Answer: 56.3 ng/mL

Question: What about the AUC(0-t) (human, plasma, po, 4 mg, plasma, Day 1, Japan, Low 4 mg oral, n = 3, read-out: AUC0-24, Geometric mean) of the same molecule?
Answer: 390 ng·h/mL

Question: And the AUC(0-t) (human, plasma, po, 4 mg, plasma, Day 1, Japan, Low 4 mg oral, n = 3, read-out: AUC0-24, mean)?
Answer: 393 ng·h/mL

Question: What about the AUC(0-t) (human, plasma, po, 4 mg, plasma, Day 1, Japan, Low 4 mg oral, n = 3, read-out: AUC0-48, Geometric mean) of the same molecule?
Answer: 660 ng·h/mL

Question: And the AUC(0-t) (human, plasma, po, 4 mg, plasma, Day 1, Japan, Low 4 mg oral, n = 3, read-out: AUC0-48, mean)?
Answer: 661 ng·h/mL

Question: And the Cmax (human, plasma, po, 4 mg, plasma, Day 1, Japan, Low 4 mg oral, n = 3, read-out: Cmax, Geometric mean)?
Answer: 21.7 ng/mL

Question: What about the Cmax (human, plasma, po, 4 mg, plasma, Day 1, Japan, Low 4 mg oral, n = 3, read-out: Cmax, mean) of the same molecule?
Answer: 21.8 ng/mL

Question: And the Tmax (human, plasma, po, 4 mg, plasma, Day 1, Japan, Low 4 mg oral, n = 3, read-out: tmax, median)?
Answer: 4.33 h

Question: And the AUC(0-t) (human, plasma, po, 4 mg, plasma, Day 1, ROW, Low 4 mg oral, n = 4, read-out: AUC0-24, Geometric mean)?
Answer: 249 ng·h/mL

Question: And the AUC(0-t) (human, plasma, po, 4 mg, plasma, Day 1, ROW, Low 4 mg oral, n = 4, read-out: AUC0-24, mean)?
Answer: 255 ng·h/mL

Question: What about the AUC(0-t) (human, plasma, po, 4 mg, plasma, Day 1, ROW, Low 4 mg oral, n = 4, read-out: AUC0-48, Geometric mean) of the same molecule?
Answer: 419 ng·h/mL

Question: And the AUC(0-t) (human, plasma, po, 4 mg, plasma, Day 1, ROW, Low 4 mg oral, n = 4, read-out: AUC0-48, mean)?
Answer: 431 ng·h/mL

Question: What about the Cmax (human, plasma, po, 4 mg, plasma, Day 1, ROW, Low 4 mg oral, n = 4, read-out: Cmax, Geometric mean) of the same molecule?
Answer: 13.6 ng/mL

Question: What about the Cmax (human, plasma, po, 4 mg, plasma, Day 1, ROW, Low 4 mg oral, n = 4, read-out: Cmax, mean) of the same molecule?
Answer: 13.8 ng/mL

Question: And the Tmax (human, plasma, po, 4 mg, plasma, Day 1, ROW, Low 4 mg oral, n = 4, read-out: tmax, median)?
Answer: 4.07 h

Question: And the AUC(0-t) (human, plasma, po, 4 mg, plasma, Week 4, Japan, Low 4 mg once daily oral, n = 1, read-out: AUC0-24, Geometric mean)?
Answer: 1130 ng·h/mL

Question: What about the AUC(0-t) (human, plasma, po, 4 mg, plasma, Week 4, Japan, Low 4 mg once daily oral, n = 1, read-out: AUC0-24, mean) of the same molecule?
Answer: 1130 ng·h/mL

Question: What about the Cmax (human, plasma, po, 4 mg, plasma, Week 4, Japan, Low 4 mg once daily oral, n = 3, read-out: Cmax, Geometric mean) of the same molecule?
Answer: 56.2 ng/mL

Question: What about the Tmax (human, plasma, po, 4 mg, plasma, Week 4, Japan, Low 4 mg once daily oral, n = 3, read-out: tmax, median) of the same molecule?
Answer: 4.33 h

Question: What about the AUC(0-t) (human, plasma, po, 4 mg, plasma, Week 4, ROW, Low 4 mg once daily oral, n = 4, read-out: AUC0-24, Geometric mean) of the same molecule?
Answer: 763 ng·h/mL

Question: What about the AUC(0-t) (human, plasma, po, 4 mg, plasma, Week 4, ROW, Low 4 mg once daily oral, n = 4, read-out: AUC0-24, mean) of the same molecule?
Answer: 766 ng·h/mL

Question: And the Cmax (human, plasma, po, 4 mg, plasma, Week 4, ROW, Low 4 mg once daily oral, n = 4, read-out: Cmax, Geometric mean)?
Answer: 41 ng/mL

Question: What about the Cmax (human, plasma, po, 4 mg, plasma, Week 4, ROW, Low 4 mg once daily oral, n = 4, read-out: Cmax, mean) of the same molecule?
Answer: 41.6 ng/mL

Question: What about the Tmax (human, plasma, po, 4 mg, plasma, Week 4, ROW, Low 4 mg once daily oral, n = 4, read-out: tmax, median) of the same molecule?
Answer: 1.96 h

Question: What about the AUC(0-t) (human, plasma, po, 8 mg, plasma, Day 1, Japan, Mid 8 mg oral, n = 3, read-out: AUC0-24, Geometric mean) of the same molecule?
Answer: 596 ng·h/mL

Question: And the AUC(0-t) (human, plasma, po, 8 mg, plasma, Day 1, Japan, Mid 8 mg oral, n = 3, read-out: AUC0-24, mean)?
Answer: 623 ng·h/mL

Question: And the AUC(0-t) (human, plasma, po, 8 mg, plasma, Day 1, Japan, Mid 8 mg oral, n = 3, read-out: AUC0-48, Geometric mean)?
Answer: 1070 ng·h/mL

Question: And the AUC(0-t) (human, plasma, po, 8 mg, plasma, Day 1, Japan, Mid 8 mg oral, n = 3, read-out: AUC0-48, mean)?
Answer: 1130 ng·h/mL

Question: And the Cmax (human, plasma, po, 8 mg, plasma, Day 1, Japan, Mid 8 mg oral, n = 3, read-out: Cmax, Geometric mean)?
Answer: 29.9 ng/mL

Question: And the Cmax (human, plasma, po, 8 mg, plasma, Day 1, Japan, Mid 8 mg oral, n = 3, read-out: Cmax, mean)?
Answer: 31.3 ng/mL

Question: And the Tmax (human, plasma, po, 8 mg, plasma, Day 1, Japan, Mid 8 mg oral, n = 3, read-out: tmax, median)?
Answer: 4.02 h

Question: What about the AUC(0-t) (human, plasma, po, 8 mg, plasma, Day 1, ROW, Mid 8 mg oral, n = 5, read-out: AUC0-24, Geometric mean) of the same molecule?
Answer: 422 ng·h/mL

Question: And the AUC(0-t) (human, plasma, po, 8 mg, plasma, Day 1, ROW, Mid 8 mg oral, n = 5, read-out: AUC0-24, mean)?
Answer: 457 ng·h/mL

Question: And the AUC(0-t) (human, plasma, po, 8 mg, plasma, Day 1, ROW, Mid 8 mg oral, n = 5, read-out: AUC0-48, Geometric mean)?
Answer: 735 ng·h/mL

Question: What about the AUC(0-t) (human, plasma, po, 8 mg, plasma, Day 1, ROW, Mid 8 mg oral, n = 5, read-out: AUC0-48, mean) of the same molecule?
Answer: 776 ng·h/mL

Question: And the Cmax (human, plasma, po, 8 mg, plasma, Day 1, ROW, Mid 8 mg oral, n = 5, read-out: Cmax, Geometric mean)?
Answer: 23.8 ng/mL

Question: What about the Cmax (human, plasma, po, 8 mg, plasma, Day 1, ROW, Mid 8 mg oral, n = 5, read-out: Cmax, mean) of the same molecule?
Answer: 26.3 ng/mL

Question: And the Tmax (human, plasma, po, 8 mg, plasma, Day 1, ROW, Mid 8 mg oral, n = 5, read-out: tmax, median)?
Answer: 4.17 h

Question: And the AUC(0-t) (human, plasma, po, 8 mg, plasma, Week 4, Japan, Mid 8 mg once daily oral, n = 3, read-out: AUC0-24, Geometric mean)?
Answer: 1620 ng·h/mL

Question: What about the AUC(0-t) (human, plasma, po, 8 mg, plasma, Week 4, Japan, Mid 8 mg once daily oral, n = 3, read-out: AUC0-24, mean) of the same molecule?
Answer: 1650 ng·h/mL

Question: And the Cmax (human, plasma, po, 8 mg, plasma, Week 4, Japan, Mid 8 mg once daily oral, n = 3, read-out: Cmax, Geometric mean)?
Answer: 82.8 ng/mL

Question: What about the Tmax (human, plasma, po, 8 mg, plasma, Week 4, Japan, Mid 8 mg once daily oral, n = 3, read-out: tmax, median) of the same molecule?
Answer: 2.12 h

Question: What about the AUC(0-t) (human, plasma, po, 8 mg, plasma, Week 4, ROW, Mid 8 mg once daily oral, n = 5, read-out: AUC0-24, Geometric mean) of the same molecule?
Answer: 1490 ng·h/mL

Question: What about the AUC(0-t) (human, plasma, po, 8 mg, plasma, Week 4, ROW, Mid 8 mg once daily oral, n = 5, read-out: AUC0-24, mean) of the same molecule?
Answer: 1510 ng·h/mL

Question: And the Cmax (human, plasma, po, 8 mg, plasma, Week 4, ROW, Mid 8 mg once daily oral, n = 5, read-out: Cmax, Geometric mean)?
Answer: 75.8 ng/mL

Question: And the Cmax (human, plasma, po, 8 mg, plasma, Week 4, ROW, Mid 8 mg once daily oral, n = 5, read-out: Cmax, mean)?
Answer: 77.8 ng/mL

Question: What about the Tmax (human, plasma, po, 8 mg, plasma, Week 4, ROW, Mid 8 mg once daily oral, n = 5, read-out: tmax, median) of the same molecule?
Answer: 3.55 h

Question: And the AUC(0-t) (human, plasma, po, 15 mg, plasma, Day 1, Japan, High 15 mg oral, n = 3, read-out: AUC0-24, Geometric mean)?
Answer: 977 ng·h/mL

Question: What about the AUC(0-t) (human, plasma, po, 15 mg, plasma, Day 1, Japan, High 15 mg oral, n = 3, read-out: AUC0-24, mean) of the same molecule?
Answer: 990 ng·h/mL

Question: And the AUC(0-t) (human, plasma, po, 15 mg, plasma, Day 1, Japan, High 15 mg oral, n = 3, read-out: AUC0-48, Geometric mean)?
Answer: 1570 ng·h/mL

Question: And the AUC(0-t) (human, plasma, po, 15 mg, plasma, Day 1, Japan, High 15 mg oral, n = 3, read-out: AUC0-48, mean)?
Answer: 1590 ng·h/mL

Question: What about the Cmax (human, plasma, po, 15 mg, plasma, Day 1, Japan, High 15 mg oral, n = 3, read-out: Cmax, mean) of the same molecule?
Answer: 54.1 ng/mL

Reference: patent US20230372313A1, “METHODS FOR REDUCING GLYCOSPHINGOLIPID CONCENTRATION IN BRAIN TISSUE AND METHODS OF TREATMENT OF NEURODEGENERATIVE DISEASES INVOLVING THE SAME” (GENZYME CORPORATION, priority 2020, published 2023)
